This is an account of results in patent US20050096311A1, “Compositions and methods for treatment of nervous system disorders” (CNS Response, priority 2003, published 2005).

One series deals with norepinephrine uptake (Homo sapiens, UniProt P23975). As to conditions: cited from earlier work.
The next series concerns pain of migraine. As to conditions: oral or intrapulmonary administration; cited from earlier work.
The subject of series [1] is Parkinson's disease symptoms. As to conditions: cited from earlier work.
For series [2] the following is noted: cited from earlier work.
The conditions of series [3]: cited from earlier work. This is another data set of the same source.
The conditions of series [4]: formulated as a hydrochloride salt; cited from earlier work.
The conditions of series [5]: biphasic elimination; cited from earlier work.
Series [6] concerns nervous system disorder symptoms in affected patients. Kind of series: Randomized double-blind study in naive patients presenting at least one symptom of a nervous system disorder (Example 1). Format: in vivo. The text has this:
The design of this study is a randomized double-blind protocol in which a first set of clinicians diagnosed a group of naive (i.e., previously untreated) patients presenting at least one symptom of a nervous system disorder.
A second set of clinicians will monitor the compliance of each patient and assess the presence or absence of at least one symptom of a nervous system disorder on a weekly basis throughout the treatment period. At the termination of the study a third set of clinicians will evaluate the data and document the results.
Relative to Group I, all treatment groups are expected to reduce at least one symptom of a nervous system disorder except Group IV.

Another series concerns the target dopamine uptake (Homo sapiens, UniProt Q01959). The following applies: cited from earlier work.
In a further series the test system is migraine attacks. As to conditions: given prophylactically; cited from earlier work.

Chain of norepinephrine uptake (P23975 whole entry): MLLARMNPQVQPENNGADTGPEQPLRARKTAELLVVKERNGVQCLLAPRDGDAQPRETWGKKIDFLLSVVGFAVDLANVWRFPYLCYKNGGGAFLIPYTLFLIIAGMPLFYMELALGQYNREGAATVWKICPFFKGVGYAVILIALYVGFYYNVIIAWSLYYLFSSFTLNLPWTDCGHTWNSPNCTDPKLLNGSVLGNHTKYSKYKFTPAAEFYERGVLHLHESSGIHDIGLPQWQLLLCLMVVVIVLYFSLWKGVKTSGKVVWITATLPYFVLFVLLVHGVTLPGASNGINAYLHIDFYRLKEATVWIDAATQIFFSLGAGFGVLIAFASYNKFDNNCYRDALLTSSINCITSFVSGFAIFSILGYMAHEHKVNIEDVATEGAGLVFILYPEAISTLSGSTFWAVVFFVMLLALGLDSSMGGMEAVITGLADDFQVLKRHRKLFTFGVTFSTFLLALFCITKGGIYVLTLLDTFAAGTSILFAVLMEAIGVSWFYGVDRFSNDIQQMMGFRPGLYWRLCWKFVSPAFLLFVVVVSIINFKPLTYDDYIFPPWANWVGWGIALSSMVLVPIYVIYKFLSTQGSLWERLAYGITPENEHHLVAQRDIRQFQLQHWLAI
Chain of dopamine uptake (Q01959 whole entry): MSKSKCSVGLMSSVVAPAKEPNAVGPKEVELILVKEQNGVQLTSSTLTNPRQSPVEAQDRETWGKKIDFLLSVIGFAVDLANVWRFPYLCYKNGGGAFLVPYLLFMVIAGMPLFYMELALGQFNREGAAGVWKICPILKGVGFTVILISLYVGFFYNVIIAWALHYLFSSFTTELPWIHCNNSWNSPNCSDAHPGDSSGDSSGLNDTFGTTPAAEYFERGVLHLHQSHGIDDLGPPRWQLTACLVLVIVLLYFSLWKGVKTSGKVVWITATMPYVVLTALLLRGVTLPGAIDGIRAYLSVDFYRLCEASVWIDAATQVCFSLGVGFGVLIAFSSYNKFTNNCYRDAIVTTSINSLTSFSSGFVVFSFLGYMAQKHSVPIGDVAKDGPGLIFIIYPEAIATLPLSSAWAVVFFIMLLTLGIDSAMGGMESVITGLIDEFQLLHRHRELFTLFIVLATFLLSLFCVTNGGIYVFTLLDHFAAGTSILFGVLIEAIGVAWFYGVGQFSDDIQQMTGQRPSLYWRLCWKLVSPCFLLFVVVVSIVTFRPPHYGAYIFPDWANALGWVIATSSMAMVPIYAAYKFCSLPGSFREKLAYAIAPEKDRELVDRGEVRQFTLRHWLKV

Take `C[C@@H]1NC(C)(C)CO[C@@]1(O)c1cccc(Cl)c1` [(S,S)-hydroxybupropion]: the “inhibition of norepinephrine uptake” value at norepinephrine uptake was “effective inhibitor of only norepinephrine uptake”.

Turning to `CN1C[C@H](C(=O)N[C@]2(C)O[C@@]3(O)[C@@H]4CCCN4C(=O)[C@H](Cc4ccccc4)N3C2=O)C=C2c3cccc4[nH]cc(c34)C[C@H]21` [Ergotamine], the “time to pain relief” value in the series with pain of migraine is 5 h.

In the case of `N[C@@H](Cc1ccc(O)c(O)c1)C(=O)O` [Levodopa, L-3,4-dihydroxyphenylalanine], in series [1] (Parkinson's disease patients), the reduction in symptomology was 50% and the “treated patients showing the reduction in symptomology” value was 75%.

As to `NC(=O)N1c2ccccc2CC(O)c2ccccc21` (stereo not shown) [MHD, 10, 11-dihydro-10-OH-carbazepine], the “increase in the non-protein bound plasma MHD concentration” value in [2] (co-administration of oxcarbazepine and vilooxazoine) was 11%. Moreover, the plasma protein binding entry in [3] (distribution between blood cell compartments) was “low level of plasma protein binding”. Moreover, the “mean non-protein bound MHD fraction” value in [3] (epileptic patients) is listed as “approximately 56.7 +/−5.5%”.

With `CC(NC(C)(C)C)C(=O)c1cccc(Cl)c1` (stereo not drawn) [bupropion, m-chloro-α-(t-butylamino)propiophenone], the solubility entry in [4] is listed as “water-soluble”. In addition, in [5], the elimination half-life is 11 to 14 h. In [5], the redistribution half-life result is reported as “about one”. Also, the “Percent Reduction In Nervous System Disorder Symptoms In Affected Patients” value in series [6] (Symptom EIGHT), in series [6] (Symptom FIVE), in series [6] (Symptom FOUR), in series [6] (Symptom ONE), in series [6] (Symptom SEVEN) and in series [6] (Symptom SIX) was 25 ± 2.5% each time. Further, the “Percent Reduction In Nervous System Disorder Symptoms In Affected Patients” value in [6] (Symptom THREE) and in series [6] (Symptom TWO) was 25 ± 2.5% each time.

Regarding `C[C@@](Cc1ccc(O)c(O)c1)(NN)C(=O)O` [carbidopa], the “reduction of the dose of levodopa” value in [1] (concurrent administration of carbidopa) is reported as not above 75%.

In the case of `C[C@H]1NC(C)(C)CO[C@]1(O)c1cccc(Cl)c1` [hydroxybupropion], the “inhibition of norepinephrine uptake” value on norepinephrine uptake is recorded as “effective inhibitor”. Moreover, the “inhibition of dopamine uptake” value on dopamine uptake is “effective inhibitor”.

As for `NC(=O)N1c2ccccc2CC(=O)c2ccccc21` [oxcarbazepine], the plasma half-life entry in series [2] (600 mg oxcarbazepine dose) was “approximately 19.3±6.2 hours”. In addition, the “Percent Reduction In Nervous System Disorder Symptoms In Affected Patients” value in series [6] (Symptom EIGHT), in series [6] (Symptom FIVE), in [6] (Symptom FOUR), in [6] (Symptom ONE), in series [6] (Symptom SEVEN) and in [6] (Symptom SIX) was 10 ± 1% in each case. For the same molecule, the “Percent Reduction In Nervous System Disorder Symptoms In Affected Patients” value in series [6] (Symptom THREE) and in series [6] (Symptom TWO) was 10 ± 1% throughout.

For `CC(C)NCC(O)COc1cccc2ccccc12` (stereo not shown) [propranolol], in the series on migraine attacks, the “patients with reduced frequency and intensity of migraine attacks” value is given as 70%.
